Reference: ChEMBL document CHEMBL1799910, “Optimization of 1,2,3,4-tetrahydroacridin-9(10H)-ones as antimalarials utilizing structure-activity and structure-property relationships” (J Med Chem, 2011)
In brackets after ≈: the same amount, converted by molar mass.

How the values were obtained:
[1] = test system: Plasmodium falciparum; assay: Antimalarial activity against chloroquine and pyrimethamine-resistant Plasmodium falciparum W2 infected in human A positive erythrocytes after 72 hrs by SYBR Green I assay; format: functional, organism-based; settings: W2, 72 h
[2] = test system: Plasmodium falciparum; assay: Antimalarial activity against chloroquine, mefloquine, pyrimethamine and atovaquone-resistant Plasmodium falciparum TM90-C2B infected in human A positive erythrocytes after 72 hrs by SYBR Green I assay; format: functional, organism-based
[3] = test system: Plasmodium falciparum; assay: Resistance index, ratio of EC50 for chloroquine, mefloquine, pyrimethamine and atovaquone-resistant Plasmodium falciparum TM90-C2B to EC50 for chloroquine and pyrimethamine-resistant Plasmodium falciparum W2; format: functional
[4] = test system: J774; assay: Cytotoxicity against mouse J774 cells after 72 hrs by Cell titer 96 aqueous one solution cell proliferation assay; format: cell-based; settings: J774, 72 h
[5] = Aqueous solubility of compound at pH 7.4 by HPLC analysis; settings: buffer
[6] = Permeability of the compound by PAMPA method at pH 7.4; format: ADME; settings: read-out: permeability
[7] = Partition coefficient, log D of the compound at pH 7.4 by HPLC analysis; settings: octanol/water
[8] = Cytotoxicity index, ratio of EC50 for mouse J774 cells to EC50 for chloroquine, mefloquine, pyrimethamine and atovaquone-resistant Plasmodium falciparum TM90-C2B; format: cell-based; settings: read-out: Ratio EC50

SMILES | EC50 [1] | EC50 [2] | Ratio EC50 [3] | EC50 [4] | solubility [5] | Papp [6] | logD [7] | selectivity ratio [8]
Cc1ccc2c(=O)c3c([nH]c2c1)CCC(C)(C)C3 | 0.166 µM | 1.98 µM | 11.9 | > 40 µM | 75 µM (≈ 18.1 µg/mL) | 82 ×10⁻⁶ cm/s | 2.4 | ≥ 100
Cc1ccc2[nH]c3c(c(=O)c2c1)CC(C)(C)CC3 | 0.474 µM | 2.18 µM | 4.6 | > 40 µM | 52 µM (≈ 12.5 µg/mL) | 84 ×10⁻⁶ cm/s | 2.4 | ≥ 100
Cc1cccc2[nH]c3c(c(=O)c12)CC(C)(C)CC3 | 3.02 µM | 4.13 µM | 1.37 | > 40 µM | 45 µM (≈ 10.9 µg/mL) | 269 ×10⁻⁶ cm/s | 2.7 | ≥ 100
CC1(C)CCc2[nH]c3c(Cl)cccc3c(=O)c2C1 | 4.67 µM | 4.73 µM | 1.01 | > 20 µM | 62 µM (≈ 16.2 µg/mL) | 427 ×10⁻⁶ cm/s | 2.9 | ≥ 100
CC1(C)CCc2[nH]c3cc(Cl)ccc3c(=O)c2C1 | 0.24 µM | 0.829 µM | 3.45 | > 40 µM | 1 µM (≈ 0.262 µg/mL) | 62 ×10⁻⁶ cm/s | 2.8 | ≥ 100
CC1(C)CCc2[nH]c3ccc(Cl)cc3c(=O)c2C1 | 0.256 µM | 0.118 µM | 0.46 | > 40 µM | 1 µM (≈ 0.262 µg/mL) | 63 ×10⁻⁶ cm/s | 2.6 | ≥ 100
CC1(C)CCc2[nH]c3cccc(Cl)c3c(=O)c2C1 | 0.373 µM | 0.599 µM | 1.61 | > 40 µM | 23 µM (≈ 6.02 µg/mL) | 117 ×10⁻⁶ cm/s | 2.4 | ≥ 100
CC1(C)CCc2c([nH]c3ccccc3c2=O)C1 | 1.87 µM | 0.335 µM | 0.18 | > 40 µM | 64 µM (≈ 14.5 µg/mL) | 43 ×10⁻⁶ cm/s | 1.9 | ≥ 100
COc1cccc2c(=O)c3c([nH]c12)CC(C)(C)CC3 | 6.54 µM | 2.49 µM | 0.38 | > 20 µM | 91 µM (≈ 23.4 µg/mL) | 114 ×10⁻⁶ cm/s | 2.4 | ≥ 100
COc1cccc2[nH]c3c(c(=O)c12)CCC(C)(C)C3 | > 9.72 µM | 4.1 µM | <0.42 | > 20 µM | 64 µM (≈ 16.5 µg/mL) | 43 ×10⁻⁶ cm/s | 1.7 | ≥ 100
Cc1cccc2c(=O)c3c([nH]c12)CC(C)(C)CC3 | 2.37 µM | 1.75 µM | 0.74 | > 40 µM | 60 µM (≈ 14.5 µg/mL) | 88 ×10⁻⁶ cm/s | 2.3 | ≥ 100
Cc1ccc2c(=O)c3c([nH]c2c1)CC(C)(C)CC3 | 1.46 µM | 0.965 µM | 0.66 | > 10 µM | 17 µM (≈ 4.1 µg/mL) | 53 ×10⁻⁶ cm/s | 2.49 | ≥ 100
Cc1ccc2[nH]c3c(c(=O)c2c1)CCC(C)(C)C3 | 0.587 µM | 0.319 µM | 0.54 | > 2 µM | 4 µM (≈ 0.965 µg/mL) | 78 ×10⁻⁶ cm/s | 2.4 | ≥ 100
CC1(C)CCc2c([nH]c3c(Cl)cccc3c2=O)C1 | 6.7 µM | > 9.55 µM | >1.42 | > 20 µM | 20 µM (≈ 5.24 µg/mL) | 407 ×10⁻⁶ cm/s | 3 | ≥ 100
CC1(C)CCc2c([nH]c3ccc(Cl)cc3c2=O)C1 | 0.215 µM | 0.538 µM | 2.5 | > 1 µM | 2 µM (≈ 0.524 µg/mL) | 96 ×10⁻⁶ cm/s | 2.7 | ≥ 100
